Experimental data as given in patent US8299020B2, “Antimicrobial peptides and methods of their use” (The Ohio State University Research Foundation, priority 2006, dated 2012).
Like-named read-outs stand apart in the source and are kept apart here.

Legend:
solubility in water = assay type: physicochemical; settings: neutral water
Pseudomonas aeruginosa = settings: background statement; cited from earlier work
gram-negative bacteria [1] = settings: background statement; cited from earlier work
gram-negative bacteria [2] = experiment: bioassay of activity against gram-negative bacteria; assay type: cell-based
Protocol: Antimicrobial activity determination. A qualitative and quantitative bioassay for antimicrobial potency was done using the spot-on-lawn method. An indicator lawn was prepared by pouring 10 ml soft agar (seeded with 200 μl overnight indicator culture) onto tryptose agar as a basal medium, in a petri dish. Escherichia coli K-12 and Lactobacillus plantarum ATCC 8014 were generally used as the gram-negative and gram-positive sensitive indicators, respectively, but other bacteria were tested to determine the OSY-DF antimicrobial spectrum (Table 1). For qualitative tests, aliquots (10 μl) of cell-free culture supernatant (pH 6.5) were spotted on indicator lawns, and the plates were incubated overnight for inhibition area observation. A clear inhibition area of ≧3 mm in diameter was recorded as positive. For the quantitative measurements, the cell-free culture supernatant was twofold serially diluted and dilutions were spotted onto the indicator lawn as just described. Antimicrobial activity was expressed in AU/ml; these values are the reciprocal of the highest dilution displaying a clear zone of inhibition that corresponds to 1 ml of the nondiluted supernatant.
Separation and purification by HPLC of the OSY-DF peptide. […] Elution was monitored at a wavelength of 220 nm, and fractions were collected manually for the antimicrobial activity bioassay. […]

Acinetobacter baumannii = settings: background statement; cited from earlier work

Compound	solubility in water (solubility in water)	solubility in water (solubility in water; listed as OSY-DF peptide)	activity against Pseudomonas aeruginosa (Pseudomonas aeruginosa)	activity against gram-negative bacteria (gram-negative bacteria [1])	activity against gram-negative bacteria (gram-negative bacteria [2])	activity against Acinetobacter baumannii (Acinetobacter baumannii)
C=C1NC(=O)C2CSC(C)C(NC(=O)C3CSC(C)C4NC(=O)[C@H](CC(C)C)NC(=O)C(NC(=O)[C@H](CCCCN)NC(=O)C5CSCC(NC(=O)[C@@H](NC(=O)[C@H](CCCCN)NC(=O)[C@@H](NC(=O)/C(=C/C)NC(=O)/C(=C/C)NC(=O)[C@H](CCCCN)NC(=O)[C@@H](NC(=O)[C@@H](NC(=O)C(=C)NC(=O)[C@H](C)NC(C)=O)[C@@H](C)CC)[C@@H](C)CC)[C@@H](C)CC)C(C)C)C(=O)N[C@@H](CCCCN)C(=O)N[C@@H](C)C(=O)N[C@@H](C(C)C)C(=O)N5)C(C)SCC(NC4=O)C(=O)N[C@@H]([C@@H](C)CC)C(=O)N3)C(=O)NCC(=O)NC(CSCC(C(=O)N[C@@H](CCCCN)C(=O)O)NC(=O)[C@H](CC(N)=O)NC1=O)C(=O)N2 (stereo partly drawn) [Paenibacillin, (CH3CO-^1A)-Dha-I-I-K-Dhb-Dhb-I-K-V-A-K-A-V-A-K-Abu-L-Abu-A-I-A-Abu-G-A-A-Dha-N-A-K^30]	easy to dissolve	readily soluble				
polymyxin E1			active	specifically active	anti-gram-negative activity	active
